# Measured values published in the kinase profiling compilation of Christmann-Franck et al. (2016).
# Tests used:
# Experiment in all cases: KINOMEscan competition binding
# Conditions in all cases: compound 10.0 µM
# [1] = target: RPS6KA5 KD2 (human) (UniProt O75582)
# [2] = target: ERN1 (human) (UniProt O75460)
# [3] = target: LCK (human) (UniProt P06239)
# [4] = target: NEK9 (human) (UniProt Q8TD19)
# [5] = target: EPHA5 (human) (UniProt P54756)
# [6] = target: VRK2 (human) (UniProt Q86Y07)
# [7] = target: CSNK1A1 (human) (UniProt P48729)
# [8] = target: PRKACB (human) (UniProt P22694)
# [9] = target: MAPK8 (human) (UniProt P45983)
# [10] = target: BTK (human) (UniProt Q06187)
# [11] = target: TNK2 (human) (UniProt Q07912)
# [12] = target: MAPK11 (human) (UniProt Q15759)
# [13] = target: PAK7 (human) (UniProt Q9P286)
# [14] = target: PIP5K1C (human) (UniProt O60331)
# [15] = target: ICK (human) (UniProt Q9UPZ9)
# [16] = target: NUAK2 (human) (UniProt Q9H093)
# [17] = target: CaMK1 (human) (UniProt Q14012)
# [18] = target: IKBKB (human) (UniProt O14920)
# [19] = target: RPS6KA5 KD1 (human) (UniProt O75582)
# [20] = target: NEK1 (human) (UniProt Q96PY6)
# [21] = target: CDK4 CCND3 (human) (UniProt P11802+P30281)
# [22] = target: BMPR2 (human) (UniProt Q13873)
# [23] = target: AURKB (human) (UniProt Q96GD4)
# [24] = target: CAMKK1 (human) (UniProt Q8N5S9)
# [25] = target: NEK11 (human) (UniProt Q8NG66)
# [26] = target: NTRK1 (human) (UniProt P04629)
# [27] = target: PIK3C2B (human) (UniProt O00750)
# [28] = target: EIF2AK2 (human) (UniProt P19525)
# [29] = target: CDK2 (human) (UniProt P24941)
# [30] = target: NEK2 (human) (UniProt P51955)
# [31] = target: MAPKAPK2 (human) (UniProt P49137)
# [32] = target: BRAF (human) (UniProt P15056)
# [33] = target: FYN (human) (UniProt P06241)
# [34] = target: FGFR3 (human) (UniProt P22607)
# [35] = target: CSNK1G3 (human) (UniProt Q9Y6M4)
# [36] = target: HUNK (human) (UniProt P57058)
# [37] = target: EGFR (human) (UniProt P00533)
# [38] = target: ABL1 (human) (UniProt P00519)
# Chain of ABL1 (human) (P00519 whole entry, looked up): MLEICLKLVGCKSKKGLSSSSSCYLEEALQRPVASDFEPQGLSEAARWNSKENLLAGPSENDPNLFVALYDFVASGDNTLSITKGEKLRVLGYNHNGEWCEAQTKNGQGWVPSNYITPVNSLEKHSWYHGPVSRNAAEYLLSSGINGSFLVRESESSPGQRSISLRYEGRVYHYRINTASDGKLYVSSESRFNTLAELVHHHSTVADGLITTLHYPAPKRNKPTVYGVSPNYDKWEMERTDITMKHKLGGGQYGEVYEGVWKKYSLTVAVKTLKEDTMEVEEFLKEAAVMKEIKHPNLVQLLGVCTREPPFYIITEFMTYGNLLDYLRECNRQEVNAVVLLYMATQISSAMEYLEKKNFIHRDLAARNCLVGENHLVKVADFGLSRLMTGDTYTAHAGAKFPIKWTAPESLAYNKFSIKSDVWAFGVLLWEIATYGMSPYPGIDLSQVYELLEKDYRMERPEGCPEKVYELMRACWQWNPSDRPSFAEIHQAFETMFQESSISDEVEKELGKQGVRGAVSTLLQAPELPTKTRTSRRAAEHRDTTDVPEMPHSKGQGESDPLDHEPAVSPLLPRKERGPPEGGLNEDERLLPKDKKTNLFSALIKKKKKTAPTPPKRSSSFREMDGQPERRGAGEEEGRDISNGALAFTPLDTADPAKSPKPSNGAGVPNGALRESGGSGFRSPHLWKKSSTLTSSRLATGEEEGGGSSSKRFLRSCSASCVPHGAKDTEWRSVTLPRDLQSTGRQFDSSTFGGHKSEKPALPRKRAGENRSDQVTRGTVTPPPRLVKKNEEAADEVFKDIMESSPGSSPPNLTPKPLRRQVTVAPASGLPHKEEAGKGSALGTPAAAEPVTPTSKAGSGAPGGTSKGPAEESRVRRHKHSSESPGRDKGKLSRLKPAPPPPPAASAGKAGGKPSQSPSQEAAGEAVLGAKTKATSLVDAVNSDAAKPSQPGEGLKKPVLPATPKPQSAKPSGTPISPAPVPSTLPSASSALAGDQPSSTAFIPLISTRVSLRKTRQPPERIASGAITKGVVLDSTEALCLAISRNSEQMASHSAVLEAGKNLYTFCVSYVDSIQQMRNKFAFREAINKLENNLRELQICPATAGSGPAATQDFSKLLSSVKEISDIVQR
# Chain of BMPR2 (human) (Q13873 whole entry, looked up): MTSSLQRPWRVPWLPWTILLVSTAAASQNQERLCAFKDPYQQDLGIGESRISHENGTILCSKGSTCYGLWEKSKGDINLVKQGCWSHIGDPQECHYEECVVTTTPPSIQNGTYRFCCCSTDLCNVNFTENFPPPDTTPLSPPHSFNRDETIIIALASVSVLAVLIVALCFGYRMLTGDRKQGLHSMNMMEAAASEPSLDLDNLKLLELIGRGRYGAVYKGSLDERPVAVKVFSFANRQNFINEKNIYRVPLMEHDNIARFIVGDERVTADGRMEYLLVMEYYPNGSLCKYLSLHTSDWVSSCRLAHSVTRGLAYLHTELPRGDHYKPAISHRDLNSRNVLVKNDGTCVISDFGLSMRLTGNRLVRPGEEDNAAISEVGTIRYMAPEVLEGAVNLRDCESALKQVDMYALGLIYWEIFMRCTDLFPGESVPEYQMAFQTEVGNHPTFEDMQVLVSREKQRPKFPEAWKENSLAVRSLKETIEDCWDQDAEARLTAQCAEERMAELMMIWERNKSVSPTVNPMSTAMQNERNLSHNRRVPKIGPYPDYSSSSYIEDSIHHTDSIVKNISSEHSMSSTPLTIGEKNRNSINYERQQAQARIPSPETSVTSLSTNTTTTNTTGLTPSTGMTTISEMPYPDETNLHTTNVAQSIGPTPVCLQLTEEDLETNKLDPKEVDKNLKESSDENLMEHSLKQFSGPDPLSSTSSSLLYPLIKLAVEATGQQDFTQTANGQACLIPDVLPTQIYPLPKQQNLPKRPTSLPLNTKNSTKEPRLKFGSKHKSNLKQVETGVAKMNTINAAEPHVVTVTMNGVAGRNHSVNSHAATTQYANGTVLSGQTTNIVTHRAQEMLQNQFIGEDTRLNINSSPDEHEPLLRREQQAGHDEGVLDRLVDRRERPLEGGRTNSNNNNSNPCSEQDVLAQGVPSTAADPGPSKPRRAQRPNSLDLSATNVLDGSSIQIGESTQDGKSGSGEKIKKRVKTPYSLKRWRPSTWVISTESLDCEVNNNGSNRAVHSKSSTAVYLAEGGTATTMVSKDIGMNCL
# Chain of CaMK1 (human) (Q14012 whole entry, looked up): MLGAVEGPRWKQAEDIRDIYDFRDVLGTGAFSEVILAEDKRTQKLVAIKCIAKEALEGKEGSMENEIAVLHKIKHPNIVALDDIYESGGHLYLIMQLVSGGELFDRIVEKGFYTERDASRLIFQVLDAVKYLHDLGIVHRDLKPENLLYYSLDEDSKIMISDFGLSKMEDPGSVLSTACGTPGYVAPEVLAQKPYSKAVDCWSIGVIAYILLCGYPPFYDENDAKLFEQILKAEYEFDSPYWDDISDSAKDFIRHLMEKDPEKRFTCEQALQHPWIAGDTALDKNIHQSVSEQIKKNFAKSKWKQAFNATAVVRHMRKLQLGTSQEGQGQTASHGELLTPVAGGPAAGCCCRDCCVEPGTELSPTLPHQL
# Chain of NUAK2 (human) (Q9H093 whole entry, looked up): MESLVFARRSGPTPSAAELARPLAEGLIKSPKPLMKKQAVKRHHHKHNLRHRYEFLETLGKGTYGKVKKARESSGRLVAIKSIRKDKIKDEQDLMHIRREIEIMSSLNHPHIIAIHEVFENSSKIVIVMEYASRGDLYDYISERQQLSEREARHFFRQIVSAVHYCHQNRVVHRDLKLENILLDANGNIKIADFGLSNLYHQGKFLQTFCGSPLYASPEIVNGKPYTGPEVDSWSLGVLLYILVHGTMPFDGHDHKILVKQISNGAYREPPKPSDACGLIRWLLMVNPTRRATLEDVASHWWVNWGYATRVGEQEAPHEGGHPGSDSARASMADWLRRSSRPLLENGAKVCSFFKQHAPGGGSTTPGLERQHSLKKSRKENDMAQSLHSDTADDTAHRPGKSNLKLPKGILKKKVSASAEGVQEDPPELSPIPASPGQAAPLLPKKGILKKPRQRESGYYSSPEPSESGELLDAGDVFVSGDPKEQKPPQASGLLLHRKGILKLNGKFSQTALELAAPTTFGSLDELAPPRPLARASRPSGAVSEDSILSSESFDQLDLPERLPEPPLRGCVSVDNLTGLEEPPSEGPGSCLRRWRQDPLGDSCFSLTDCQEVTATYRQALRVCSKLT
# Chain of FGFR3 (human) (P22607 whole entry, looked up): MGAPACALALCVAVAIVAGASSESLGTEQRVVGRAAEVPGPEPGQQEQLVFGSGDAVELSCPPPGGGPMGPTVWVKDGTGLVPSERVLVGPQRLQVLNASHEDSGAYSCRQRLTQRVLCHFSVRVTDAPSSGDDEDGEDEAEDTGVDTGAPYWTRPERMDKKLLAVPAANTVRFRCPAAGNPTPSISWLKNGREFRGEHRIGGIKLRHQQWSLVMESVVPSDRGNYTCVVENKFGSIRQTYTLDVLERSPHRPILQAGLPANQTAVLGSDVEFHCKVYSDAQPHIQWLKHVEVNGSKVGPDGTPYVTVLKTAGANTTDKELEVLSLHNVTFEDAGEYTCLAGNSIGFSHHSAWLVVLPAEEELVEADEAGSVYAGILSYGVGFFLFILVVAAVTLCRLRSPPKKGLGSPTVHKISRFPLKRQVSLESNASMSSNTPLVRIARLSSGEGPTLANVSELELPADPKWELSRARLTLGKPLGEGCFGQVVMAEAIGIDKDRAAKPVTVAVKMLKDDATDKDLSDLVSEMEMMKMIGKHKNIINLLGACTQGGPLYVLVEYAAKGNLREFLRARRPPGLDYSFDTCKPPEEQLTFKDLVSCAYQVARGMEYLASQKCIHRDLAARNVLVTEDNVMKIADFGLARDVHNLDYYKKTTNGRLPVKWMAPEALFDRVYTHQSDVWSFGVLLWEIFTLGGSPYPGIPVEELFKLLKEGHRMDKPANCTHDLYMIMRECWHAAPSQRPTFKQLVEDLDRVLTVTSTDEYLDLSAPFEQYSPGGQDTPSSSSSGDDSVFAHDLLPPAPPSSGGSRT
# Chain of NEK2 (human) (P51955 whole entry, looked up): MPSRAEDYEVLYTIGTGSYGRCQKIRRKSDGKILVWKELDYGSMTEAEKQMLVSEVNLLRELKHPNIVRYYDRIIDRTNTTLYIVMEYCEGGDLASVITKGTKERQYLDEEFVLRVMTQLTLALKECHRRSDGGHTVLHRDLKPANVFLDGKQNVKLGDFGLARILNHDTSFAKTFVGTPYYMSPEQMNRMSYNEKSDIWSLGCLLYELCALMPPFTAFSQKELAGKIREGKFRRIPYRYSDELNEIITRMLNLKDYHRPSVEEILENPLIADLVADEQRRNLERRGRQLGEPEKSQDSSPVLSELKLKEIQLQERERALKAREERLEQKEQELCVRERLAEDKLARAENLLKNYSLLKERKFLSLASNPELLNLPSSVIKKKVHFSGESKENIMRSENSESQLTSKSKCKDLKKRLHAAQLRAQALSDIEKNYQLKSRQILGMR
# Chain of MAPK8 (human) (P45983 whole entry, looked up): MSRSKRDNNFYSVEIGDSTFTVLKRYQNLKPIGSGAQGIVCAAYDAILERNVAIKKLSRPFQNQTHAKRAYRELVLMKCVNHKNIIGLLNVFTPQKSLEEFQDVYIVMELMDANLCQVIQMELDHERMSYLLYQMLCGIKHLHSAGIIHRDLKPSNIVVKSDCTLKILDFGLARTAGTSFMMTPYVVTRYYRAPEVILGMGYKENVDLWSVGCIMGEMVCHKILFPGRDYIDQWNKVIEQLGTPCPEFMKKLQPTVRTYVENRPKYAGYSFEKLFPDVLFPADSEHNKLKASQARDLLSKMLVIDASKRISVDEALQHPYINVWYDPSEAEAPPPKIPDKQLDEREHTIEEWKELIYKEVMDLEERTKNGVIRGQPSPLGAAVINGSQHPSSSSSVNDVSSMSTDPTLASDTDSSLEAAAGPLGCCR
SMILES,"kinase still bound, per cent of control [1]","kinase still bound, per cent of control [4]","kinase still bound, per cent of control [5]","kinase still bound, per cent of control [8]","kinase still bound, per cent of control [9]","kinase still bound, per cent of control [10]","kinase still bound, per cent of control [11]","kinase still bound, per cent of control [12]","kinase still bound, per cent of control [13]","kinase still bound, per cent of control [16]","kinase still bound, per cent of control [17]","kinase still bound, per cent of control [19]","kinase still bound, per cent of control [20]","kinase still bound, per cent of control [22]","kinase still bound, per cent of control [23]","kinase still bound, per cent of control [24]","kinase still bound, per cent of control [26]","kinase still bound, per cent of control [28]","kinase still bound, per cent of control [29]","kinase still bound, per cent of control [30]",other results
N#C/C(=C1/Nc2ccccc2S1)c1ccnc(NCCc2cccnc2)n1,72%,90%,99%,100%,0%,77%,91%,85%,76%,100%,73%,100%,57%,88%,89%,83%,57%,72%,90%,96%,"kinase still bound, per cent of control [2]: 79%; kinase still bound, per cent of control [3]: 100%; kinase still bound, per cent of control [6]: 100%; kinase still bound, per cent of control [7]: 9.8%; kinase still bound, per cent of control [14]: 8.2%; kinase still bound, per cent of control [15]: 64%; kinase still bound, per cent of control [18]: 68%; kinase still bound, per cent of control [21]: 49%; kinase still bound, per cent of control [25]: 100%; kinase still bound, per cent of control [27]: 19%; kinase still bound, per cent of control [31]: 100%; kinase still bound, per cent of control [32]: 14%; kinase still bound, per cent of control [33]: 100%; kinase still bound, per cent of control [34]: 92%; kinase still bound, per cent of control [35]: 100%; kinase still bound, per cent of control [36]: 92%"
COc1cc(C)c(Sc2cnc(NC(=O)c3ccc(CNC(C)C(C)C)cc3)s2)cc1C(=O)N1CCN(C(C)=O)CC1 (configuration not stated),100%,100%,100%,100%,100%,2.6%,100%,100%,100%,25%,100%,100%,100%,100%,100%,100%,20%,100%,100%,18%,"kinase still bound, per cent of control [37]: 100%; kinase still bound, per cent of control [3]: 6.2%; kinase still bound, per cent of control [38]: 100%; kinase still bound, per cent of control [18]: 100%; kinase still bound, per cent of control [27]: 100%; kinase still bound, per cent of control [31]: 100%; kinase still bound, per cent of control [33]: 100%; kinase still bound, per cent of control [34]: 100%; kinase still bound, per cent of control [35]: 100%"
COc1ccc(N(C(=O)Oc2cc(C(=O)Nc3cccc(C(F)(F)F)c3)ccc2C)c2ccnc(Nc3ccc(N4CCN(C)CC4)cc3)n2)c(OC)c1,100%,100%,0.85%,27%,100%,1.4%,4%,1.9%,100%,100%,100%,100%,100%,1.1%,100%,100%,27%,100%,100%,100%,"kinase still bound, per cent of control [37]: 3.4%; kinase still bound, per cent of control [3]: 0.4%; kinase still bound, per cent of control [38]: 2%; kinase still bound, per cent of control [31]: 100%; kinase still bound, per cent of control [33]: 1.4%; kinase still bound, per cent of control [34]: 3.7%; kinase still bound, per cent of control [35]: 100%"
COc1cc(N2CCC(C(N)=O)CC2)ccc1Nc1nc(N)c(Cl)c(Nc2ccccc2S(=O)(=O)C(C)C)n1,100%,100%,100%,100%,4.1%,26%,0.2%,100%,100%,100%,100%,100%,100%,100%,100%,18%,100%,100%,100%,100%,"kinase still bound, per cent of control [37]: 0.55%; kinase still bound, per cent of control [3]: 14%; kinase still bound, per cent of control [38]: 100%; kinase still bound, per cent of control [18]: 100%; kinase still bound, per cent of control [27]: 100%; kinase still bound, per cent of control [31]: 100%; kinase still bound, per cent of control [33]: 100%; kinase still bound, per cent of control [34]: 100%; kinase still bound, per cent of control [35]: 100%"
COc1cc2c(Nc3ccc(NC(=O)c4ccccc4)cc3)ncnc2cc1OCCCN1CCOCC1,100%,100%,100%,100%,67%,7.3%,5.9%,84%,94%,94%,55%,100%,81%,81%,0.15%,76%,16%,100%,82%,51%,"kinase still bound, per cent of control [37]: 0.65%; kinase still bound, per cent of control [2]: 74%; kinase still bound, per cent of control [6]: 100%; kinase still bound, per cent of control [7]: 63%; kinase still bound, per cent of control [14]: 69%; kinase still bound, per cent of control [15]: 100%; kinase still bound, per cent of control [18]: 100%; kinase still bound, per cent of control [21]: 100%; kinase still bound, per cent of control [25]: 100%; kinase still bound, per cent of control [27]: 100%; kinase still bound, per cent of control [31]: 100%; kinase still bound, per cent of control [32]: 100%; kinase still bound, per cent of control [33]: 55%; kinase still bound, per cent of control [34]: 67%; kinase still bound, per cent of control [35]: 100%; kinase still bound, per cent of control [36]: 81%"
